This assay concerns the target T1, canine TRPM8 (Canis lupus familiaris, UniProt Q1A7N1).
T1 construct: expressed in transfected cells
As to the kind of experiment: In Vitro Canine TRPM8 Functional Assay (intracellular Ca2+ fluorescence, icilin activation, HEK293 cells). To be noted: for IC50: HEK293 cells expressing canine TRPM8, icilin activation, individually measured values (batches/salt forms), read-out: IC50 (nM), in vitro TRP M8 Activity. The format is cell-based. The protocol:
The changes in fluorescent signal were monitored by a fluorescence plate reader, either a FLIPR™ (Molecular Devices) or FDSS (Hamamatsu). […] Cells were maintained in 5% CO2 at 37° C. At 24 hr prior to assay, cells were seeded in black wall, clear-base poly-D-lysine coated 384-well plates (BD Biosciences, NJ, USA) at a density of 5,000 cells per well in culture medium and grown overnight in 5% CO2 at 37° C. On assay day, growth media was removed, and cells were loaded with Calcium 3 Dye (Molecular Devices) for 35 min at 37° C., under 5% CO2 and then incubated for 25 min at room temperature and atmosphere. Subsequently, cells were tested for agonist-induced increases in intracellular Ca^2+ levels using FLIPR™ or FDSS. […] Maximal fluorescence intensity (FI) achieved upon addition of icilin was exported from the FLIPR™ or FDSS software and further analyzed using GraphPad Prism 3.02 (Graph Pad Software Inc., CA, U.S.A.). Basal FI was subtracted prior to normalizing data to percent of maximal response. Curves were generated using the average of quadruplicate wells for each data point using nonlinear regression of either sigmoidal dose response or sigmoidal dose response (variable slope). Finally, IC50 values were calculated with the best-fit curve determined by GraphPad Prism

Where [1] appears, read: HEK293, 0.2 μM test compound, individually measured values, read-out: % Inh (%) @0.2 μM, in vitro TRP M8 Activity.
[2] abbreviates: HEK293, read-out: % Inh (%) @0.2 μM, in vitro TRP M8 Activity, 0.2 μM test compound, individually measured values.

Several values for one entry are separate records, joined by “and”; a condition that tells them apart may be missing. Identical values can stand only once. Counter-ions that a name gives are not always drawn. Like-named read-outs stand apart in the source and are kept apart here.

T1 sequence (Q1A7N1 1-1104): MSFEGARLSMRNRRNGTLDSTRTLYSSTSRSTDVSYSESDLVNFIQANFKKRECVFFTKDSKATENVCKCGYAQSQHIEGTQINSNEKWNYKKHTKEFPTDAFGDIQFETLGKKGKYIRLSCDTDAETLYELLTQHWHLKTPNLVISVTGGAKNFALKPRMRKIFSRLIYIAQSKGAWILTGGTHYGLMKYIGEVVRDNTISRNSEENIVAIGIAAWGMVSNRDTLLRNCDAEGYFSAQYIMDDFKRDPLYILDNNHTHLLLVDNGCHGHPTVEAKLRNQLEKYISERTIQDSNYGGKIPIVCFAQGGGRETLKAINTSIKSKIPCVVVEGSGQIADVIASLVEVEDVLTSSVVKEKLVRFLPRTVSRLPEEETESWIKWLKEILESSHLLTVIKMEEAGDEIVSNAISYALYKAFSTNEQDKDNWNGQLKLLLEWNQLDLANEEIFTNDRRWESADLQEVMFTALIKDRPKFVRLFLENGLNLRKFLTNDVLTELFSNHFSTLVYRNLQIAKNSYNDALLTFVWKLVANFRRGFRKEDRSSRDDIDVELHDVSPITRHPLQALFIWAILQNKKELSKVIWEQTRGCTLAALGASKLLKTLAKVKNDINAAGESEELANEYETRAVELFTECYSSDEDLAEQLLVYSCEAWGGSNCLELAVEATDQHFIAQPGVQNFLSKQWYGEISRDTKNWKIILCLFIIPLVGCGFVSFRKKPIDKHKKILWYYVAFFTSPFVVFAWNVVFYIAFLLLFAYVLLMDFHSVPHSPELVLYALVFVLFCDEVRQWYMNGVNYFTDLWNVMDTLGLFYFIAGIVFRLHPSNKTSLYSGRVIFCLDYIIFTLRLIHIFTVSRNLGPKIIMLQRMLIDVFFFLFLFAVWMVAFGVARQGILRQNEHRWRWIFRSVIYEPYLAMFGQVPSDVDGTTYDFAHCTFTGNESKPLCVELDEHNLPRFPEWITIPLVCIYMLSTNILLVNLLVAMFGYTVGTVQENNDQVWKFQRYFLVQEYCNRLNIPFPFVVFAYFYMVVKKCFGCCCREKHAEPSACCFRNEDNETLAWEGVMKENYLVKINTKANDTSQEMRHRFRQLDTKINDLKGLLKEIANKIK

With `Cc1oc(C(C)(C)C)nc1-c1nc2cc(-c3ccccc3Cl)cc(Cl)c2[nH]1` [Compound 163, 2-(2-tert-Butyl-5-methyl-oxazol-4-yl)-7-chloro-5-(2-chloro-phenyl)-1H-benzimidazole hydrochloride], the inhibition at 0.2 µM under setting [1] was 62%.

In the case of `Cc1ccccc1-c1ccc2[nH]c(-c3cc(C(C)(C)C)nn3C)nc2c1` [Compound 55, 2-(5-tert-Butyl-2-methyl-2H-pyrazol-3-yl)-5-o-tolyl-1H-benzimidazole trifluoroacetic acid salt], the IC50 stood at 5.5 nM. For the compound `Cn1nc(C2(C)CC2)cc1-c1nc2cc(-c3ccccc3C(F)(F)F)ccc2[nH]1` [Compound 52, 2-[2-Methyl-5-(1-methylcyclopropyl)-2H-pyrazol-3-yl]-5-(2-trifluoromethylphenyl)-1H-benzimidazole sodium salt], the IC50 amounted to 17.6 nM. In the case of `Cc1oc(C(C)(C)C)nc1-c1nc2cc(-c3ccccc3OC(F)(F)F)cc(C(F)(F)F)c2[nH]1` [Compound 156, 2-(2-tert-Butyl-5-methyl-oxazol-4-yl)-5-(2-trifluoromethoxy-phenyl)-7-trifluoromethyl-1H-benzimidazole hydrochloride], the inhibition at 0.2 µM under setting [1] was found to be 58%. With `CC(C)(C)c1cc(-c2nc3cc(-c4c(F)cccc4OC(F)(F)F)cc(C(F)(F)F)c3[nH]2)on1` [Compound 145, 2-(3-tert-Butyl-isoxazol-5-yl)-5-(2-fluoro-6-trifluoromethoxy-phenyl)-7-trifluoromethyl-1H-benzimidazole sodium salt], the half-maximal inhibitory concentration (IC50) was 3.7 nM and 8.1 nM. Moreover, under setting [2], the inhibition at 0.2 µM is 100%. In the case of `Cc1oc(C(C)(C)C)c(C#N)c1-c1nc2cc(-c3ccccc3C(F)(F)F)cc(C(F)(F)F)c2[nH]1` [Compound 184, 2-tert-Butyl-5-methyl-4-[7-trifluoromethyl-5-(2-trifluoromethyl-phenyl)-1H-benzimidazol-2-yl]-furan-3-carbonitrile sodium salt], the IC50 stood at 6.4 nM. Under setting [1], the inhibition at 0.2 µM came to 101%. With `Cn1nc(C(C)(C)C)c(C#N)c1-c1nc2cc(-c3c(F)cccc3C(F)(F)F)cc(C(F)(F)F)c2[nH]1.[Na]` [Compound 152, 3-tert-Butyl-5-[5-(2-fluoro-6-trifluoromethyl-phenyl)-7-trifluoromethyl-1H-benzimidazol-2-yl]-1-methyl-1H-pyrazole-4-carbonitrile sodium salt], the IC50 is 5.3 nM and 6.5 nM and 5 nM. Moreover, for the setting “0.2 μM test compound, individually measured values, sodium salt, 0.2 µM”, the “% Inh (%) @0.2 μM, in vitro TRP M8 Activity” value is 99%. Moreover, the inhibition at 0.2 µM under setting [2] stood at 100%. On to `CC(C)c1cc(-c2nc3cc(-c4ccccc4OC(F)(F)F)ccc3[nH]2)on1` [Compound 5, 2-(3-Isopropylisoxazol-5-yl)-5-(2-trifluoromethoxyphenyl)-1H-benzimidazole sodium salt], for which the IC50 was 22.5 nM. As to `CC(C)(C)c1cc(-c2nc3cc(-c4c(C(F)(F)F)cccc4C(F)(F)F)ccc3[nH]2)on1` [Compound 104, 5-(2,6-Bis-trifluoromethyl-phenyl)-2-(3-tert-butyl-isoxazol-5-yl)-1H-benzimidazole hydrochloride], the IC50 is 3.9 nM. Still for that read-out and setting: with `Cn1nc(C2CCC2)cc1-c1nc2cc(-c3ccccc3C(F)(F)F)ccc2[nH]1` [Compound 37, 2-(5-Cyclobutyl-2-methyl-2H-pyrazol-3-yl)-5-(2-trifluoromethyl-phenyl)-1H-benzimidazole sodium salt] the figure was 55.9 nM. Regarding `CC(C)c1cc(-c2nc3cc(-c4cccc(C(F)(F)F)c4)ccc3[nH]2)on1` [Compound 7, 2-(3-Isopropylisoxazol-5-yl)-5-(3-trifluoromethylphenyl)-1H-benzimidazole sodium salt], the inhibition at 0.2 µM under setting [1] came out at 10%. Consider `Cn1nc2c(c1-c1nc3cc(-c4ccccc4OC(F)(F)F)ccc3[nH]1)CCCC2(C)C` [Compound 31, 2,7,7-Trimethyl-3-[5-(2-trifluoromethoxyphenyl)-1H-benzimidazol-2-yl]-4,5,6,7-tetrahydro-2H-indazole sodium salt], for which the IC50 was 84 nM. On the same count and under the same terms, with `COc1ccccc1-c1ccc2[nH]c(-c3cc(C(C)C)no3)nc2c1` [Compound 2, 2-(3-Isopropylisoxazol-5-yl)-5-(2-methoxyphenyl)-1H-benzimidazole sodium salt] the figure was 16 nM; with `Cc1c(C(C)(C)C)nn(C)c1-c1nc2cc(-c3ccccc3F)cc(C(F)(F)F)c2[nH]1` [Compound 118, 2-(5-tert-Butyl-2,4-dimethyl-2H-pyrazol-3-yl)-5-(2-fluoro-phenyl)-7-trifluoromethyl-1H-benzimidazole hydrochloride], 9.6 nM; with `FC(F)(F)c1ccccc1-c1ccc2[nH]c(-c3cc(C4CC4)no3)nc2c1` [Compound 16, 2-(3-cyclopropylisoxazol-5-yl)-5-(2-trifluoromethylphenyl)-1H-benzimidazole sodium salt], 58 nM. Same read-out and setting: with `Cc1c(C(C)(C)C)noc1-c1nc2cc(-c3ccccc3C(F)(F)F)ccc2[nH]1` [Compound 108, 2-(3-tert-Butyl-4-methyl-isoxazol-5-yl)-5-(2-trifluoromethyl-phenyl)-1H-benzimidazole hydrochloride] the figure was 10.2 nM. On to `Cc1oc(C(C)(C)C)nc1-c1nc2cc(-c3ccccc3F)cc(Cl)c2[nH]1` [Compound 161, 2-(2-tert-Butyl-5-methyl-oxazol-4-yl)-7-chloro-5-(2-fluoro-phenyl)-1H-benzimidazole hydrochloride], for which, under setting [1], the inhibition at 0.2 µM stood at 36%. Consider `Cc1oc(C(C)(C)C)nc1-c1nc2cc(-c3ccccc3C(F)(F)F)cc(Cl)c2[nH]1` [Compound 165, 2-(2-tert-Butyl-5-methyl-oxazol-4-yl)-7-chloro-5-(2-trifluoromethyl-phenyl)-1H-benzimidazole hydrochloride], for which the inhibition at 0.2 µM under setting [1] was found to be 27%. For `Cn1nc2c(c1-c1nc3cc(-c4ccccc4C(F)(F)F)ccc3[nH]1)CCCC2(C)C` [Compound 30, 2,7,7-Trimethyl-3-[5-(2-trifluoromethylphenyl)-1H-benzimidazol-2-yl]-4,5,6,7-tetrahydro-2H-indazole sodium salt], the IC50 was found to be 36 nM. As to `Cn1nc(C(C)(C)C)c(C#N)c1-c1nc2cc(-c3ccccc3F)cc(C(F)(F)F)c2[n-]1.[Na+]` [Compound 147, 3-tert-Butyl-5-[(5-(2-fluoro-phenyl)-7-trifluoromethyl-1H-benzimidazol-2-yl]-1-methyl-1H-pyrazole-4-carbonitrilesodium salt], the IC50 was 5.9 nM and 4.8 nM and 5.1 nM. In addition, the inhibition at 0.2 µM under setting [1] came out at 100%. For the compound `Cc1oc(-c2nc3cc(-c4ccccc4OC(F)(F)F)cc(C(F)(F)F)c3[nH]2)nc1C(C)(C)C` [Compound 195, 2-(4-tert-Butyl-5-methyl-oxazol-2-yl)-5-(2-trifluoromethoxy-phenyl)-7-trifluoromethyl-1H-benzimidazole hydrochloride], the inhibition at 0.2 µM under setting [1] turned out to be 46%. Still for that read-out and setting: with `Cc1nc(C(C)(C)C)oc1-c1nc2cc(-c3ccccc3F)cc(Cl)c2[nH]1` [Compound 182, 2-(2-tert-Butyl-4-methyl-oxazol-5-yl)-7-chloro-5-(2-fluoro-phenyl)-1H-benzimidazole hydrochloride] the figure was 26%.

Turning to `Cn1nc(C(C)(C)C)c(C#N)c1-c1nc2cc(-c3ccccc3F)cc(Cl)c2[nH]1` [Compound 167, 3-tert-Butyl-5-[7-chloro-5-(2-fluoro-phenyl)-1H-benzimidazol-2-yl]-1-methyl-1H-pyrazole-4-carbonitrile sodium salt], the IC50 was determined as 9.8 nM. Also, the inhibition at 0.2 µM under setting [1] amounted to 100%. Turning to `Cc1oc(C(C)(C)C)nc1-c1nc2cc(-c3c(F)cccc3C(F)(F)F)cc(C(F)(F)F)c2[nH]1` [Compound 158, 2-(2-tert-Butyl-5-methyl-oxazol-4-yl)-5-(2-fluoro-6-trifluoromethyl-phenyl)-7-trifluoromethyl-1H-benzimidazole hydrochloride], the inhibition at 0.2 µM under setting [1] was found to be 72%. With `Cc1oc(-c2nc3cc(-c4ccccc4F)cc(C(F)(F)F)c3[nH]2)nc1C(C)(C)C` [Compound 193, 2-(4-tert-Butyl-5-methyl-oxazol-2-yl)-5-(2-fluoro-phenyl)-7-trifluoromethyl-1H-benzimidazole hydrochloride], under setting [1], the inhibition at 0.2 µM was 18%. Turning to `Cn1nc(C(C)(C)C)c(Cl)c1-c1nc2cc(-c3c(F)cccc3OC(F)(F)F)cc(C(F)(F)F)c2[nH]1` [Compound 126, 2-(5-tert-Butyl-4-chloro-2-methyl-2H-pyrazol-3-yl)-5-(2-fluoro-6-trifluoromethoxy-phenyl)-7-trifluoromethyl-1H-benzimidazole hydrochloride], the IC50 is 3.9 nM and 3.5 nM. Moreover, the inhibition at 0.2 µM under setting [1] is 99%.

For the compound `CC(C)(C)c1cc(-c2nc3cc(-c4ccccc4Cl)ccc3[nH]2)on1` [Compound 68, 2-(3-tert-Butyl-isoxazol-5-yl)-5-(2-chloro-phenyl)-1H-benzimidazole trifluoroacetic acid salt], the IC50 was 14.8 nM and 16.3 nM. The same measure, in the same setting: with `CCn1nc(C(C)(C)C)cc1-c1nc2cc(-c3ccccc3OC(F)(F)F)ccc2[nH]1` [Compound 45, 2-(5-tert-butyl-2-ethyl-2H-pyrazol-3-yl)-5-(2-trifluoromethoxyphenyl)-1H-benzimidazole sodium salt] the figure was 51.2 nM.

In general, IC50 refers to the midpoint of a concentration-inhibition curve.

The record behind these values is patent US20120202856A1, “SUBSTITUTED BENZIMDAZOLE DERIVATIVES USEFUL AS TRPM8 RECEPTOR MODULATORS” (priority 2011, published 2012).
